Reference: ChEMBL document CHEMBL5528054, “Novel Cocrystal Structures of Peptide Antagonists Bound to the Human Melanocortin Receptor 4 Unveil Unexplored Grounds for Structure-Based Drug Design” (J Med Chem, 2024)

Assays:
Format in all cases: functional
[1] = target: T1, Melanocyte-stimulating hormone receptor (Homo sapiens, UniProt Q01726); assay: Partial agonist activity at C-terminal HA-tagged human MC1-R stably expressed in HEK293 cells co-expressing GScAMP22P cAMP reporter assessed as inhibition of alpha-MSH induced cAMP production by cell based luminescence assay relative to control; parameters: concentration or dose not given beside the values; details: filed as partial agonist, concentration not given here
Target sequence in this assay (Q01726 whole entry, looked up): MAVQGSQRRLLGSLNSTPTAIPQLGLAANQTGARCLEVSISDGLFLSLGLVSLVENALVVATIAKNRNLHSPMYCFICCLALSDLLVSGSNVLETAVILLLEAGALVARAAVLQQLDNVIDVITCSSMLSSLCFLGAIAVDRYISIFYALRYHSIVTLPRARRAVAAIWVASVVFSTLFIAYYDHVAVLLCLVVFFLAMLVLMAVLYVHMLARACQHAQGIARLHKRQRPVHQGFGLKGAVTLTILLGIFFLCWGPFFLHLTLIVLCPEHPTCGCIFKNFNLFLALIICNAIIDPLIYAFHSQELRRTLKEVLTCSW

[2] = target: T1, Melanocyte-stimulating hormone receptor; assay: Partial agonist activity at C-terminal HA-tagged human MC1-R stably expressed in HEK293 cells co-expressing GScAMP22P cAMP reporter assessed as inhibition of alpha-MSH induced cAMP production by cell based luminescence assay
Target sequence in this assay (Q01726 whole entry): as the sequence (Q01726 whole entry, looked up) above

[3] = target: Melanocortin receptor 4 (Homo sapiens, UniProt P32245); assay: Antagonist activity at C-terminal HA-tagged human MC4-R stably expressed in HEK293 cells co-expressing GScAMP22P cAMP reporter assessed as inhibition of alpha-MSH induced cAMP production by cell based luminescence assay; details: hek293; read-out: IC50
[4] = target: Melanocortin receptor 3 (Homo sapiens, UniProt P41968); assay: Antagonist activity at C-terminal HA-tagged human MC3-R stably expressed in HEK293 cells co-expressing GScAMP22P cAMP reporter assessed as inhibition of alpha-MSH induced cAMP production by cell based luminescence assay; details: read-out: IC50
Sequence of Melanocortin receptor 3 (P41968 whole entry): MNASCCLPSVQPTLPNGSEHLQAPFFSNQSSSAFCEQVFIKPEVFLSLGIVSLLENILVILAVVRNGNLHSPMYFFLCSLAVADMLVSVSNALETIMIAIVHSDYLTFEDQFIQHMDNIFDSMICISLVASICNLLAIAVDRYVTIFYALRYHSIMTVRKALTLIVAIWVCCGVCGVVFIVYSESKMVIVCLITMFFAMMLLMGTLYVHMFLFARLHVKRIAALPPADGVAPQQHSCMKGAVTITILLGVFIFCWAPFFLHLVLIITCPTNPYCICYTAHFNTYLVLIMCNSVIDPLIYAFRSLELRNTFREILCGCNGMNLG

Sequence of Melanocortin receptor 4 (P32245 whole entry): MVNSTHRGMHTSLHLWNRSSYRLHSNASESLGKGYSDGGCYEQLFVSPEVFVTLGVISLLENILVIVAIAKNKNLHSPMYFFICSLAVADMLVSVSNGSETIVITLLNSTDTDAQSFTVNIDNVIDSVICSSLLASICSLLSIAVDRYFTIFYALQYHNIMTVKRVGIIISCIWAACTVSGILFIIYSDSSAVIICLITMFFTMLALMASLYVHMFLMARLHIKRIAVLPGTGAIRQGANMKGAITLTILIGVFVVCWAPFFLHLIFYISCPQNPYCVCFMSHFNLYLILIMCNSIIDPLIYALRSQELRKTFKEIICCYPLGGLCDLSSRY

Row | inhibition [1] [%] | IC50 [2] [nM] | SMILES | other results
1 | 88.7 | 175 | CCCC[C@H](NC(C)=O)C(=O)N[C@H]1CC(=O)NCCCC[C@@H](C(N)=O)NC(=O)[C@H](CCCCNC(=N)N(CCC)CCC)NC(=O)[C@H](Cc2c[nH]c3ccccc23)NC(=O)[C@H](CCCNC(=N)N)NC(=O)[C@@H](Cc2ccc3ccccc3c2)NC(=O)[C@@H]2CCCN2C1=O | 
2 |  |  | CCCC[C@H](NC(C)=O)C(=O)N[C@H]1CC(=O)NCCCC[C@@H](C(N)=O)NC(=O)CNC(=O)[C@H](Cc2c[nH]c3ccccc23)NC(=O)[C@H](CCCNC(=N)N)NC(=O)[C@@H](Cc2ccc3ccccc3c2)NC(=O)[C@@H]2C[C@@H](n3cc(C(C)(C)N)nn3)CN2C1=O | IC50 ([2]; hek293): 1.53 nM; IC50 [3]: 4.34 nM; IC50 ([4]; hek293): 72.4 nM
3 | 91.2 | 575 | CCCC[C@H](NC(C)=O)C(=O)N[C@H]1CC(=O)NCCCC[C@@H](C(N)=O)NC(=O)[C@H](CCCNC(N)=O)NC(=O)[C@H](Cc2c[nH]c3ccccc23)NC(=O)[C@H](CCCNC(=N)N)NC(=O)[C@@H](Cc2ccc3ccccc3c2)NC(=O)[C@@H]2CCCN2C1=O | 
4 | 78.6 | 0.12 | CCCC[C@H](NC(C)=O)C(=O)N[C@H]1CC(=O)NCCCC[C@@H](C(N)=O)NC(=O)CNC(=O)[C@H](Cc2c[nH]c3ccccc23)NC(=O)[C@H](CCCNC(=N)N)NC(=O)[C@@H](Cc2ccc3ccccc3c2)NC(=O)[C@@H]2C[C@H](NC(=O)CCNC(=N)N)CN2C1=O | 
5 | 73.7 | 3060 | CC(=O)N[C@H](CCCN)C(=O)N[C@H]1CC(=O)NCCCC[C@@H](C(N)=O)NC(=O)[C@H](CCCNC(=N)N)NC(=O)[C@H](Cc2c[nH]c3ccccc23)NC(=O)[C@H](CCCNC(=N)N)NC(=O)[C@@H](Cc2ccc3ccccc3c2)NC(=O)[C@@H]2CCCN2C1=O | 
6 | 85.9 | 5.09 | CCCC[C@H](NC(C)=O)C(=O)N[C@H]1CC(=O)NCCCC[C@@H](C(N)=O)NC(=O)CNC(=O)[C@H](Cc2c[nH]c3ccccc23)NC(=O)[C@H](CCCNC(=N)N)NC(=O)[C@@H](Cc2ccc3ccccc3c2)NC(=O)[C@@H]2C[C@H](n3cc(CCNC(=N)N)nn3)CN2C1=O | 
7 | 94.6 | 1240 | CC(=O)N[C@H](CCCNC(=N)N)C(=O)N[C@H]1CC(=O)NCCCC[C@@H](C(N)=O)NC(=O)[C@H](CCCNC(=N)N)NC(=O)[C@H](Cc2c[nH]c3ccccc23)NC(=O)[C@H](CCCNC(=N)N)NC(=O)[C@@H](Cc2ccc3ccccc3c2)NC(=O)[C@@H]2CCCN2C1=O | 
8 | 90.6 | 816 | CCCC[C@H](NC(C)=O)C(=O)N[C@H]1CC(=O)NCCCC[C@@H](C(N)=O)NC(=O)[C@H](CCCCNC(=N)N)NC(=O)[C@H](Cc2c[nH]c3ccccc23)NC(=O)[C@H](CCCNC(=N)N)NC(=O)[C@@H](Cc2ccc3ccccc3c2)NC(=O)[C@@H]2CCCN2C1=O | 
9 | 88.6 | 90 | CCCC[C@H](NC(C)=O)C(=O)N[C@H]1CC(=O)NCCCC[C@@H](C(N)=O)NC(=O)[C@H](Cc2ccc(NC(=N)N)cc2)NC(=O)[C@H](Cc2c[nH]c3ccccc23)NC(=O)[C@H](CCCNC(=N)N)NC(=O)[C@@H](Cc2ccc3ccccc3c2)NC(=O)[C@@H]2CCCN2C1=O | 
10 | 90.9 | 22.5 | CCCC[C@H](NC(C)=O)C(=O)N[C@H]1CC(=O)NCCCC[C@@H](C(N)=O)NC(=O)CNC(=O)[C@H](Cc2c[nH]c3ccccc23)NC(=O)[C@H](CCCNC(=N)N)NC(=O)[C@@H](Cc2ccc3ccccc3c2)NC(=O)[C@@H]2C[C@H](NC(=O)c3ccccc3)CN2C1=O | 
11 | 90.1 | 13.5 | CCCC[C@H](NC(C)=O)C(=O)N[C@H]1CC(=O)NCCCC[C@@H](C(N)=O)NC(=O)CNC(=O)[C@H](Cc2c[nH]c3ccccc23)NC(=O)[C@H](CCCNC(=N)N)NC(=O)[C@@H](Cc2ccc3ccccc3c2)NC(=O)[C@@H]2C[C@H](NC(=O)Cc3ccccc3)CN2C1=O | 
12 | 76.4 | 0.08 | CCCC[C@H](NC(C)=O)C(=O)N[C@H]1CC(=O)NCCCC[C@@H](C(N)=O)NC(=O)CNC(=O)[C@H](Cc2c[nH]c3ccccc23)NC(=O)[C@H](CCCNC(=N)N)NC(=O)[C@@H](Cc2ccc3ccccc3c2)NC(=O)[C@@H]2C[C@@H](NC(=O)CCNC(=N)N)CN2C1=O | 
13 | 89.6 | 92 | CCCC[C@H](NC(C)=O)C(=O)N[C@H]1CC(=O)NCCCC[C@@H](C(N)=O)NC(=O)[C@H](CCCCNC(=N)NCc2ccccc2)NC(=O)[C@H](Cc2c[nH]c3ccccc23)NC(=O)[C@H](CCCNC(=N)N)NC(=O)[C@@H](Cc2ccc3ccccc3c2)NC(=O)[C@@H]2CCCN2C1=O | 
14 | 86.2 | 75 | CCCC[C@H](NC(C)=O)C(=O)N[C@H]1CC(=O)NCCCC[C@@H](C(N)=O)NC(=O)[C@H](CCCCNC(=N)NCCC)NC(=O)[C@H](Cc2c[nH]c3ccccc23)NC(=O)[C@H](CCCNC(=N)N)NC(=O)[C@@H](Cc2ccc3ccccc3c2)NC(=O)[C@@H]2CCCN2C1=O | 
15 | 83.2 | 608 | CCCC[C@H](NC(C)=O)C(=O)N[C@H]1CC(=O)NCCCC[C@@H](C(N)=O)NC(=O)[C@H](CCCCNC(=N)NCCC(=O)O)NC(=O)[C@H](Cc2c[nH]c3ccccc23)NC(=O)[C@H](CCCNC(=N)N)NC(=O)[C@@H](Cc2ccc3ccccc3c2)NC(=O)[C@@H]2CCCN2C1=O | 
16 | 83.8 | 363 | CCCC[C@H](NC(C)=O)C(=O)N[C@H]1CC(=O)NCCCC[C@@H](C(N)=O)NC(=O)[C@H](CCCN)NC(=O)[C@H](Cc2c[nH]c3ccccc23)NC(=O)[C@H](CCCNC(=N)N)NC(=O)[C@@H](Cc2ccc3ccccc3c2)NC(=O)[C@@H]2CCCN2C1=O | 
17 | 85.3 | 15.4 | CCCC[C@H](NC(C)=O)C(=O)N[C@H]1CC(=O)NCCCC[C@@H](C(N)=O)NC(=O)[C@H](CCCCNC(=N)NCCN)NC(=O)[C@H](Cc2c[nH]c3ccccc23)NC(=O)[C@H](CCCNC(=N)N)NC(=O)[C@@H](Cc2ccc3ccccc3c2)NC(=O)[C@@H]2CCCN2C1=O | 
18 | 89.5 | 77.4 | CCCC[C@H](NC(C)=O)C(=O)N[C@H]1CC(=O)NCCCC[C@@H](C(N)=O)NC(=O)CNC(=O)[C@H](Cc2c[nH]c3ccccc23)NC(=O)[C@H](CCCNC(=N)N)NC(=O)[C@@H](Cc2ccc3ccccc3c2)NC(=O)[C@@H]2C[C@H](n3cc(C4CCCCC4)nn3)CN2C1=O | IC50 [4]: 56.8 nM
19 | 76 |  | CCCC[C@H](NC(C)=O)C(=O)N[C@H]1CC(=O)NCCCC[C@@H](C(N)=O)NC(=O)[C@H](Cc2c[nH]c3ccccc23)NC(=O)[C@H](CCCNC(=N)N)NC(=O)[C@@H](Cc2ccc3ccccc3c2)NC(=O)[C@H](Cc2c[nH]cn2)NC1=O | 
20 |  | 10.1 | CCCCCC(=O)N[C@H]1C[C@H]2C(=O)N[C@H](Cc3ccc4ccccc4c3)C(=O)N[C@@H](CCCNC(=N)N)C(=O)N[C@@H](Cc3c[nH]c4ccccc34)C(=O)NCC(=O)N[C@H](C(N)=O)CCCCNC(=O)C[C@H](NC(=O)[C@H](CCCC)NC(C)=O)C(=O)N2C1 | 
21 | 81.6 | 158 | CCCC[C@H](NC(C)=O)C(=O)N[C@H]1CC(=O)NCCCC[C@@H](C(N)=O)NC(=O)[C@H](CCCCN)NC(=O)[C@H](Cc2c[nH]c3ccccc23)NC(=O)[C@H](CCCNC(=N)N)NC(=O)[C@@H](Cc2ccc3ccccc3c2)NC(=O)[C@@H]2CCCN2C1=O | 
